For test [1], the system named is HepG2 cells. Description: Mitochondrial membrane potential depolarization, JC-1. It is filed as cell-based, human. Particulars: 48 h; for MMP depolarization: JC-1 flow cytometry, control 7.74%. The source says:
In order to explore the effect of compound 3k·CH3I on MMP, a JC-1 staining kit was used to detect the depolarization of the MMP of human hepatocellular carcinoma HepG2 cells treated with compound 3k·CH3I, as shown in Figure 8.
Flow cytometry was used to detect the intimal potential of HepG2 cells. […] It was concluded that the apoptosis of HepG2 cells was induced by compound 3k·CH3I and was associated with the mitochondrial-mediated endogenous pathway.
HepG2 cells with logarithmic growth stage were selected and inoculated into a designated confocal six-well plate with 2 mL cell suspension per well (1 × 10^6 cells/mL) and cultured in a sterile incubator for 24 h. The cells were treated with different concentrations of 3k·CH3I (0, 2, 4, 8 μmol/L) and continued to be cultured for 48 h. PBS cleans the cells, 0.25% trypsin digests the cells, and collects the cells. After the drug action time was over, 1 mL of pre-configured JC-1 staining solution was added and incubated for 30 min. After JC-1 incubation, the cells were observed by fluorescence microscope, the supernatant was separated, and the PBS cell suspension was taken and the experimental results were determined by flow cytometry.

Test [2] concerns HepG2 cells. Briefly: Annexin V/PI apoptosis by flow cytometry. It is filed as cell-based, human. Particulars: 48 h, control 3.03%.
Method: HepG2 cells with logarithmic growth stage were selected and inoculated into a designated confocal six-well plate with 2 mL cell suspension per well (1 × 10^6 cells/mL) and cultured in a sterile incubator for 24 h. […] The cellular preparations were initially rinsed with phosphate-buffered saline (PBS), followed by enzymatic detachment using a 0.25% trypsin solution. Post-collection, the cells underwent centrifugation at 800 revolutions per minute (rpm) for a duration of 5 min to pelletize. The resulting cell pellet was subsequently re-suspended in 1 mL of culture medium designed for cell propagation. The 100 µL cell suspension was transferred into a flow detection tube, with 5 µL AnnexinV added, cultured at room temperature away from light for 15 min, and centrifuged at 800 revolutions per minute (rpm) for a period of 5 min, after which the supernatant containing the staining solution was aspirated. Then, 100 µL of binding buffer for re-suspension and 5 µL of PI dye were added and the solution was mixed well and incubated at low temperature, avoiding light for 15 min. The results were measured by flow cytometry.
For test [3], the system named is human liver cancer cell line HepG2. Description: MTT anti-proliferative assay, HepG2. It counts as cell-based. The text has this:
(§1) The anti-proliferative activities of 3a–k against human lung cancer cell line (A549), human hepatoma cell line (HepG2), and human breast cancer cell line (MCF-7) were examined. With lupeol and cisplatin as positive controls, the MTT assay was used to evaluate the anti-proliferative activity of all of the synthesized compounds in vitro.
(§2) The MTT (Beyotime, Shanghai, China) colorimetric method was used to test the antitumor activity of the synthetic products. The test compound and the control compound were prepared into the liquid with a concentration of 1, 5, 10, 20, and 40 μmol/L, respectively. The tested tumor cells (A549, HepG2, MCF-7) (Chinese Academy of Sciences, Shanghai, China) were inoculated into 96 well plates with a density of 2 × 10^4 cells/mL, and 90 μL PBS was injected into each well. The 96 well plates were cultured overnight in an incubator, and each well was injected with the same concentration of 10 μL of the test compound. After 48 h, 10 μL of MTT solution was injected into each well. After culture for 4 h, the plates were turned upside down and 100 μL DMSO (Kermel, Tianjin, China) was added. The optical density (OD) values of the compound and the control product were determined at 490 nm wavelength with enzyme-labeled apparatus.
On the technique in general: Tetrazolium assays rely on reduction of a dye to a coloured formazan, in cell work by metabolically active cells.

The subject of test [4] is HepG2 cells. Briefly: AO/EB double staining, cell morphology. It is filed as cell-based, human. Particulars: HepG2, 48 h, 2, 4 and 8 μmol/L. On the procedure: The apoptotic morphological alterations induced by compound 3k·CH3I in HepG2 cells were scrutinized after a 48-h treatment using the acridine orange/ethidium bromide (AO/EB) double staining method, as depicted in Figure 6.
In this study, human hepatoma HepG2 cells were treated with compound 3k·CH3I, and the tested cells were stained by the AO/EB double staining (KeyGEN BioTECH, Nanjing, China) method to observe the morphological changes of the cells. HepG2 cells of logarithmic growth stage were inoculated into confocal six-well plates, and a volume of 2 mL of the cell suspension, adjusted to a concentration of 1 × 10^6 cells per milliliter, was introduced into each well. The cells were cultured in an aseptic constant temperature incubator for 24 h, and 3k·CH3I solution with concentrations of 0, 2, 4, and 8 μmol/L was added successively, and the culture continued for 48 h. The cellular specimens were rinsed with phosphate-buffered saline (PBS) on two occasions, after which 500 µL of staining buffer was introduced to the preparation, followed by storage in a light-protected environment for subsequent analysis. AO (5 µL) and EB (5 µL) staining solutions were added to the six-well plates successively, mixed and incubated at 4 °C for 20 min under light protection, then PBS was added and observed under a fluorescence microscope.

In test [5] the test system is A549, HepG2, MCF-7. Description: MTT anti-proliferative assay, stated for all three tumor cell lines together. It counts as cell-based, human. Particulars: three tested cell lines.
Source text: as §1, §2

For test [6], the system named is HepG2 cells. Briefly: Intracellular ROS, DCFH-DA, flow cytometry. It counts as cell-based, human. The note with it: HepG2, 2, 4 and 8 μmol/L, 48 h, compared with the control group. On the procedure: Flow cytometry was additionally used to determine the effect of compound 3k·CH3I on ROS levels in HepG2 cells.
HepG2 cells were inoculated into a six-well plate with 2 mL cell suspension per well at a concentration of 1 × 10^6 cells/mL overnight in an incubation chamber maintained at 37 °C with a 5% CO2 atmosphere. The cells were treated with different concentrations of compound 3k·CH3I (0, 2, 4 and 8 μmol/L) and continued to be cultured for 48 h. The cells underwent a PBS rinse to cleanse them, subsequent digestion with a 0.25% trypsin solution to facilitate detachment, and subsequent centrifugation at 800 revolutions per minute (rpm) for 5 min to sediment the cells. The ensuing cell pellet was then re-suspended in 1 mL of nutrient-rich cell culture medium for further experimental procedures. Then, 5 μmol/L DCFH-DA solution was added to each well and they were incubated for 30 min away from light. After incubation, the cells were digested, the supernatant was centrifuged, and the PBS cell suspension was taken and placed in a flow cytometry to determine the experimental results.
In general terms: Flow cytometry measures light scatter and fluorescence of single cells or particles in a stream.

The test system of test [7] is PI3K/AKT/mTOR pathway in HepG2 cells. Briefly: Western blotting of PI3K/AKT/mTOR-related proteins. It is filed as cell-based, human. Particulars: HepG2, 2, 4 and 8 μmol/L, 48 h, relative to control. Here is the method:
In order to better comprehend the effect of compound 3k·CH3I on the expression of proteins related to the mitochondrial apoptosis pathway, HepG2 cells were treated with 3k·CH3I at different concentrations (0, 2, 4, and 8 μmol/L), and Western blotting was used to determine the expression of related proteins, as shown in Figure 9.
HepG2 cells with logarithmic growth stage were selected to make a single-cell suspension and inoculated into a culture bottle with a cell density of 1 × 10^6 cells/mL. The cells were treated with different concentrations of compound 3k·CH3I (0, 2, 4 and 8 μmol/L) and cultured for 48 h. A mixture of 500 μL of phenylmethylsulfonyl fluoride (PMSF) and radio immunoprecipitation assay (RIPA) lysate was added to each well, and the protein content was determined using the bicinchoninic acid (BCA) assay and denatured at high temperature 30 min later. The protein samples were separated by polyacrylamide gel electrophoresis (SDS-PAGE) and transferred to a polyvinylidene fluoride (PVDF) membrane. The membrane was enclosed in 5% skim milk for 2 h, then specific antibodies of different proteins were added, incubated at 4 °C overnight, and secondary antibodies were added for 2 h. Finally, the gel imager was used for detection. […] The gray-scale of the bands was analyzed by gel imaging image analysis software and the relative protein content was calculated.

The IC50 is the concentration at which inhibition is half-maximal.

As to `C=C(C)C1CCC2(C)CCC3(C)C(CCC4C5(C)CCC(OC(=O)N6CCN(c7cc[n+](C)cc7)CC6)C(C)(C)C5CCC43C)C12` (stereo not shown) [Compound 3k·CH3I], the MMP depolarization in test [1] (HepG2, 2 μmol/L) turned out to be 17.2%; in test [1] (HepG2, 4 μmol/L), 27.3%; in test [1] (HepG2, 8 μmol/L) it was 48.9%. Moreover, the “JC-1 fluorescence (microscopy)” value in test [1] (HepG2, different concentrations, compared with the control group) was “the red fluorescence gradually weakened until it eventually disappeared, and the green fluorescence gradually strengthened”. Also, the “total percentage of apoptotic and necrotic cells” value is recorded as 45.10% in test [2] (HepG2, 4 μmol/L) and 55.6% in test [2] (HepG2, 8 μmol/L). Further, in test [3] (HepG2, ratio of IC50), the “activity on HepG2 relative to lupeol” value is on record as “about 10 times”. Besides, in test [3] (Homo sapiens, HepG2, MTT assay, 48 h of treatment, three independent experiments, read-out: IC50 (μM) HepG2), the IC50 is 3.13 µM. Besides, the “apoptotic morphological alterations (AO/EB staining)” value in test [4] was “bright red fluorescence due to the chromatin concentration and nuclear fragmentation”. Also, in test [5], the “anti-proliferative activity compared with lupeol” value is recorded as “more potent than that of lupeol”. Also, in test [6], the ROS levels result is “increased significantly”. The “expression of P-AKT, P-PI3K and P-mTOR” value in test [7] is given as “downregulation”. Further, the “expression of basal forms of AKT, PI3K and mTOR” value in test [7] was “dose-dependent upregulation”.

The record behind these values is publication PMC11396318, “Lupeol-3-carbamate Derivatives: Synthesis and Biological Evaluation as Potential Antitumor Agents” (Molecules, 2024).
